Assay results published in patent US11738022B2, “Methods for inducing pupil dilation” (THE REGENTS OF THE UNIVERSITY OF COLORADO, A BODY CORPORATE, priority 2017, dated 2023).

Key:
[1] = system: pupil; test: Pupil dilation measured with Neuroptics pupillometer after α-2 agonist pre-treatment and/or phenylephrine; type: in vivo, human
Protocol: Dilation medication used was Phenylephrine hydrochloride 10% (Akorn, Inc). Pupillometer used was a Neuroptics DP-2000 Binocular Pupillometer).
Dilation using phenylephrine hydrochloride 10% was conducted in both eyes of the test subject to use as a control against the other compounds being tested.
After this, dilation using phenylephrine hydrochloride 2.5% or phenylephrine hydrochloride 10% was conducted to investigate the effects of the compound on pupil dilation.
Apracionidine 0.5% was administered in the right eye of the test subject three (3) times a day for 4 days. After this, dilation using phenylephrine hydrochloride 10% was conducted to investigate the effects of the compound on pupil dilation.
After this, dilation using phenylephrine hydrochloride 10% was conducted to investigate the effects of the compound on pupil dilation.
A washout period of multiple months was undertaken in between each experiment.
Pupil measurements were obtained using a Neuroptics pupillometer. Parameters were as follows: Scotopic conditions for 1 second, followed by photopic conditions for 4 seconds (1258.925 lux), followed by scotopic conditions for 10 seconds. This allowed for investigation of scotopic pupil size, photopic pupil size, and scotopic pupil size recovery after the light stimulus concluded.
The pupils of the subject's pretreated right eye and untreated control left eye were then measured under both scotopic and photopic conditions for baseline measurements (FIG. 6A). Photopic conditions consisted of a 4 second window where a light was shining in both eyes simultaneously. […]
The experiment was repeated at a higher dosage wherein the subject was administered a second ophthalmic formulation containing 10% phenylephrine to both eyes. 30 minutes after instillation of 10% phenylephrine, the pupils of the subject were then measured under both scotopic and photopic conditions (FIG. 6C). […] Because the area of a circle is dependent on the radius squared (area of a circle=πr^2), the increase in area that is created from a increasing the pupil dilation size is not linear.
The results were then compared.

[2] = system: α receptors (α2:α1); settings: affinity ratio; cited from earlier work
[3] = system: iris; settings: men taking tamsulosin, 10 retrospective and prospective studies; cited from earlier work
[4] = after pre-treatment of right eye only, 3 times a day for 4 days, before phenylephrine
[5] = after pre-treatment of right eye only, 3 times a day for 4 days, before phenylephrine, left eye not treated
[6] = dilation pre and post treatment with α 2 agonist: treated eye vs control measurements of same eye
[7] = non-treated eye dilation compared to treated eye dilation
[8] = photopic conditions (1258.925 lux) after dilation with phenylephrine 10%
[9] = photopic conditions (1258.925 lux) after dilation with phenylephrine 10%, eye without pre-treatment
[10] = right eye pre-treated 3 times a day for 4 days, then phenylephrine 10% both eyes
[11] = right eye pre-treated 3 times a day for 4 days, then phenylephrine 10% both eyes, left eye not pre-treated

## Cc1cccc([C@H](C)c2cnc[nH]2)c1C [Dexmedetomidine, dexmedetomidine]
[1]; after dilation with phenylephrine hydrochloride 10%
  increase of surgical work area compared to the pre-treatment control dilation amount in the same eye: +220%
[1]; [4]
  CH LStim Ave: 64%
  CH RPupil Ave: 64%
  CH RStim Ave: 64%
  CH Right: 64%
  CLAT LStim Ave: 0.36 s
  CLAT RPupil Ave: 0.38 s
  CLAT RStim Ave: 0.36 s
  CLAT Right: 0.38 s
  DELTA LStim Ave: 4.01 mm
  DELTA RPupil Ave: 4.19 mm
  DELTA RStim Ave: 4.01 mm
  DV LStim Ave: 0.95 mm/s
  DV RPupil Ave: 0.96 mm/s
  DV RStim Ave: 0.95 mm/s
  DV Right: 0.96 mm/s
  MCV LStim Ave: 5.42 mm/s
  MCV RPupil Ave: 5.84 mm/s
  MCV RStim Ave: 5.42 mm/s
  Max LStim Ave: 6.30 mm
  Max RStim Ave: 6.30 mm
  Max Right: 6.57 mm
  Min LStim Ave: 2.29 mm
  Min RPupil Ave: 2.38 mm
  Min RStim Ave: 2.29 mm
  Min Right: 2.38 mm
[1]; [5]
  CH LPupil Ave: 64%
  CH Left: 64%
  CLAT LPupil Ave: 0.34 s
  CLAT Left: 0.34 s
  DELTA Left: 3.83 mm
  DV Left: 0.94 mm/s
  MCV Left: 4.99 mm/s
  Max Left: 6.03 mm
  Min Left: 2.20 mm
[1]; [6]
  Pupil size change (%): +78.83%
  Surgical work area change (%): +219.8%
[1]; [7]
  Pupil size change (%): +74.46%
  Surgical work area (%): +204.4%
[1]; [8]
  Pupil size, Treated eye: 6.42 mm
  Surgical Work area, Treated eye: 32.35 mm^2
[1]; [9]
  Pupil size, Non-treated eye: 3.68 mm
  Surgical Work area, Non-treated eye: 10.63 mm^2
[1]; [10]
  CH LStim Ave: 46%
  CH RPupil Ave: 34%
  CH RStim Ave: 46%
  CH Right: 34%
  CLAT LStim Ave: 0.20 s
  CLAT RPupil Ave: 0.16 s
  CLAT RStim Ave: 0.20 s
  CLAT Right: 0.16 s
  DELTA LStim Ave: 4.22 mm
  DELTA RPupil Ave: 3.31 mm
  DELTA RStim Ave: 4.22 mm
  DV LStim Ave: 0.94 mm/s
  DV RPupil Ave: 0.80 mm/s
  DV RStim Ave: 0.94 mm/s
  DV Right: 0.80 mm/s
  MCV LStim Ave: 3.24 mm/s
  MCV RPupil Ave: 2.49 mm/s
  MCV RStim Ave: 3.24 mm/s
  Max LStim Ave: 9.27 mm
  Max RStim Ave: 9.27 mm
  Max Right: 9.73 mm
  Min LStim Ave: 5.05 mm
  Min RPupil Ave: 6.42 mm
  Min RStim Ave: 5.05 mm
  Min Right: 6.42 mm
[1]; [11]
  CH LPupil Ave: 58%
  CH Left: 58%
  CLAT LPupil Ave: 0.24 s
  CLAT Left: 0.24 s
  DELTA Left: 5.13 mm
  DV Left: 1.08 mm/s
  MCV Left: 4.00 mm/s
  Max Left: 8.81 mm
  Min Left: 3.68 mm
[2]
  α2:α1 affinity: 1620

## CCOc1ccccc1OCCN[C@H](C)Cc1ccc(OC)c(S(N)(=O)=O)c1 [tamsulosin]
[3]
  risk of IFIS: up to 90%
